The target in the experiment is T1, Human pyruvate kinase R (PKR) (Homo sapiens, UniProt P30613).
T1 construct: Human pyruvate kinase R (PKR), residues 14-574; 6x-His (N, cleaved yes); 8x-Arg (N, cleaved yes); SUMO (N, cleaved yes); host or cells: E. coli
Kind of experiment: Biochemical assay for activation of pyruvate kinase R (Kinase-Glo luminescence measurement of ATP generation). The following applies: for AC50: PKR biochemical assay, 0.1 nM PKR, 0.3 mM ADP, 2 mM FBP, 0.1 mM PEP; for Emax: maximal activation level relative to the activation level achieved by the literature compound AG-348 @ 10 μM. The method, then: Human pyruvate kinase R (PKR), residues 14-574, and human pyruvate kinase M2, residues 1-531, were cloned into expression plasmids and obtained from ATUM Bio (Newark, Calif.). Proteins were translated as fusions with 6×-His, 8×-Arg, and SUMO at the N-terminus. A third construct of human PKR was truncated, residues 50-574, and similarly cloned for use in crystallography experiments. All proteins were cloned, expressed in E. coli, and purified using similar protocols. Cells were grown at 30° C. in Luria-Bertani broth supplemented with 0.4% glucose to OD600=0.8 and induced with 0.4 mM IPTG at 16° C. for 18 hours. Cells were harvested by centrifugation, resuspended in 50 mM potassium phosphate pH 8.0, 500 mM NaCl, 25 mM imidazole pH 8.0, and 3 mM (3-mercaptoethanol. Cells were lysed using a LM20 microfluidizer from Microfluidics (Westwood, Mass.). The crude lysate was immediately supplemented with 0.2 mM phenylmethylsulfonyl fluoride (PMSF) and centrifuged at 20,000 g for 20 minutes. The soluble fraction was subsequently incubated with 2 mL Ni-NTA (GE Healthcare) per 1,000 ODs for 1 hour at 4° C. Following incubation with the Ni-NTA resin, lysate was removed by pelleting resin at 2,500 g for 3 minutes and washed 3 times with 9 bed volumes of 50 mM potassium phosphate pH 8.0, 500 mM NaCl, 25 mM imidazole, and 3 mM 3-mercaptoethanol. Following the batch wash Ni-NTA resin was loaded onto a gravity column and His-tagged protein was eluted with 6 bed volumes of 10 mM Tris/HCl pH 8.0, 200 mM NaCl, 500 mM imidazole, and 3 mM (3-mercaptoethanol. Eluted protein was dialyzed overnight against 10 mM Tris/HCl pH 8.0, 200 mM NaCl, and 1 mM DTT and the 6×-His-8×-Arg-SUMO-tag was cleaved using a 20:1 molar ratio of protein:3C protease. The protein was purified by anion exchange chromatography on a HiTrapQ or MonoQ 10/100 GL column (GE Healthcare) via a linear NaCl gradient and twice by size exclusion chromatography using a Superdex S200 26/60 column (GE Healthcare) run in 10 mM Tris/HCl pH 8.0, 200 mM NaCl, 10 mM MgCl2, 1 mM DTT. Proteins were concentrated to −12 mg/mL for crystallization and flash frozen for storage.
Biochemical Assay for Activation of Pyruvate Kinase R
Activation of pyruvate kinase R (PKR) and pyruvate kinase M2 (PKM2) were measured using a luminescence based measurement of ATP generation and the Kinase-Glo luminescent kinase reagent kit.

For 22 compounds, AC50 and Emax results are on record in patent US20230278984A1 (Global Blood Therapeutics, Inc., priority 2020, published 2023).

T1 sequence (P30613 14-574): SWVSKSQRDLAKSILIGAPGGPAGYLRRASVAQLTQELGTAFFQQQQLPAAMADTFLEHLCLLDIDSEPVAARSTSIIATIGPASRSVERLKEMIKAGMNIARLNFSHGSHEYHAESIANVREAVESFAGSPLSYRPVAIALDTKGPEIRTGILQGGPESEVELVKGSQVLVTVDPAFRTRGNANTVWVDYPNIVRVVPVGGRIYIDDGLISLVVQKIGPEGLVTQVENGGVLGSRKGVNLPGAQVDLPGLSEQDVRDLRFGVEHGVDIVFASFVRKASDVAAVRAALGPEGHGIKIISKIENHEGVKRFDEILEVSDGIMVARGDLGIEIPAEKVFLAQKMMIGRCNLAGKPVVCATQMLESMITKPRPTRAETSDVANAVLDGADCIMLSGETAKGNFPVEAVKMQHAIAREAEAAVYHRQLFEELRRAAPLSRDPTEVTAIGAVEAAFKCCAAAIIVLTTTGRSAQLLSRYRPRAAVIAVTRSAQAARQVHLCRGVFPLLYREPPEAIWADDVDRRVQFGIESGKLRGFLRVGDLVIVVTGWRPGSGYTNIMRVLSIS

By AC50 is commonly meant the concentration at which the activity in the assay is half-maximal. Read a low AC50 as activity at low concentration. What is called Emax is the size of the effect at its maximum, as opposed to the concentration needed. `COCCc1nc(CNC(=O)NCc2nc(C)nn2-c2ccc3cccnc3c2)n(-c2ccc(Cl)c(F)c2)n1` [Compound 100] came in with a half-maximal activity concentration (AC50) of 510 nM and a maximum response (Emax) of 106%.

With `O=C(NCc1ncnn1-c1ccc(Cl)c(F)c1)NCc1nnnn1-c1ccc(Cl)c(F)c1` [Compound 31, 3-{[1-(4-chloro-3-fluorophenyl)-1H-1,2,3,4-tetrazol-5-yl]methyl}-1-{[1-(4-chloro-3-fluorophenyl)-1H-1,2,4-triazol-5-yl]methyl}urea], half-maximal activity (AC50) was put at 14 nM and the Emax amounted to 76%.

As for `Cc1nc(CNC(=O)NCc2nc(C)nn2-c2ccc3cccnc3c2)n(-c2ccc(Cl)c(F)c2)n1` [Compound 87, 1-{[1-(4-chloro-3-fluorophenyl)-3-methyl-1H-1,2,4-triazol-5-yl]methyl}-3-{[3-methyl-1-(quinolin-7-yl)-1H-1,2,4-triazol-5-yl]methyl}urea], the half-maximal activity concentration (AC50) is 83 nM and the Emax was 87%.

As to `Cc1nc(CNC(=O)NCc2ncnn2CC2(C)CCOCC2)n(-c2ccc(Cl)c(F)c2)n1` [Compound 12, 3-{[1-(4-chloro-3-fluorophenyl)-3-methyl-1H-1,2,4-triazol-5-yl]methyl}-1-({1-[(4-methyloxan-4-yl)methyl]-1H-1,2,4-triazol-5-yl}methyl)urea], the half-maximal activity concentration (AC50) was found to be 180 nM and the maximum response (Emax) came to 89%.

Turning to `CCN(Cc1ncnn1-c1ccc(Cl)c(F)c1)C(=O)NCc1ncnn1-c1ccc(O)nc1` [Compound 121, 3-{[1-(4-chloro-3-fluorophenyl)-1H-1,2,4-triazol-5-yl]methyl}-3-ethyl-1-{[1-(6-hydroxypyridin-3-yl)-1H-1,2,4-triazol-5-yl]methyl}urea], the AC50 was determined as 7800 nM and the Emax amounted to 47%.

In turn, `Cc1nc(CNC(=O)NCc2ncnn2-c2cncc(C3CC3)c2)n(-c2ccc(Cl)c(F)c2)n1` [Compound 133, 1-{[1-(4-chloro-3-fluorophenyl)-3-methyl-1H-1,2,4-triazol-5-yl]methyl}-3-{[1-(5-cyclopropylpyridin-3-yl)-1H-1,2,4-triazol-5-yl]methyl}urea] yielded an AC50 of 160 nM and an Emax of 86%.

Compound `Cc1nc(CNC(=O)NCc2ncnn2CC2CCCCC2)n(-c2ccc(Cl)c(F)c2)n1` [Compound 16, 3-{[1-(4-chloro-3-fluorophenyl)-3-methyl-1H-1,2,4-triazol-5-yl]methyl}-1-{[1-(cyclohexylmethyl)-1H-1,2,4-triazol-5-yl]methyl}urea] registered a half-maximal activity concentration (AC50) of 55 nM and a maximum response (Emax) of 93%.

For `COC(=O)c1cc(-n2nc(C)nc2CNC(=O)NCc2nc(C)nn2-c2ccc(Cl)c(F)c2)ccc1Cl` [Compound 95, methyl 2-chloro-5-(5-{[({[1-(4-chloro-3-fluorophenyl)-3-methyl-1H-1,2,4-triazol-5-yl]methyl}carbamoyl)amino]methyl}-3-methyl-1H-1,2,4-triazol-1-yl)benzoate], the AC50 was found to be 68 nM and the Emax came out at 87%.

Take `Cc1nc(CNC(=O)NCc2ncnn2Cc2ccc(F)cc2)n(-c2ccc(Cl)c(F)c2)n1` [Compound 20, 3-{[1-(4-chloro-3-fluorophenyl)-3-methyl-1H-1,2,4-triazol-5-yl]methyl}-1-({1-[(4-fluorophenyl)methyl]-1H-1,2,4-triazol-5-yl}methyl)urea]: the activity was half-maximal at 51 nM (AC50) and the Emax turned out to be 97%.

`Cc1nc(CNC(=O)NCc2ncnn2-c2cnc3cccnc3c2)n(-c2ccc(Cl)c(F)c2)n1` [Compound 43, 1-{[1-(4-chloro-3-fluorophenyl)-3-methyl-1H-1,2,4-triazol-5-yl]methyl}-3-{[1-(1,5-naphthyridin-3-yl)-1H-1,2,4-triazol-5-yl]methyl}urea] returned an AC50 of 100 nM and a maximal response (Emax) of 84%.

In turn, `CC(C)c1nc(CNC(=O)NCc2ncnn2-c2ccc3cccnc3c2)n(-c2ccc(Cl)c(F)c2)n1` [Compound 42, 1-{[1-(4-chloro-3-fluorophenyl)-3-(propan-2-yl)-1H-1,2,4-triazol-5-yl]methyl}-3-{[1-(quinolin-7-yl)-1H-1,2,4-triazol-5-yl]methyl}urea] displayed an AC50 of 540 nM and an Emax of 74%.

With `Cc1nc(CNC(=O)NCc2ncnn2-c2cc(C)c3cncnc3c2)n(-c2ccc(Cl)c(F)c2)n1` [Compound 105, 1-{[1-(4-chloro-3-fluorophenyl)-3-methyl-1H-1,2,4-triazol-5-yl]methyl}-3-{[1-(5-methylquinazolin-7-yl)-1H-1,2,4-triazol-5-yl]methyl}urea], the activity was half-maximal at 880 nM (AC50) and the Emax is 59%.

Consider `Cc1nc(CNC(=O)NCc2nc(C)nn2-c2ccc(Cl)c(CO)c2)n(-c2ccc(Cl)c(F)c2)n1` [Compound 96, 1-({1-[4-chloro-3-(hydroxymethyl)phenyl]-3-methyl-1H-1,2,4-triazol-5-yl}methyl)-3-{[1-(4-chloro-3-fluorophenyl)-3-methyl-1H-1,2,4-triazol-5-yl]methyl}urea], for which the activity was half-maximal at 34 nM (AC50) and the Emax came out at 100%.

For the compound `O=C(NCc1ncnn1-c1ccc2cccnc2c1)NCc1n[nH]c(=O)n1-c1ccc(Cl)c(F)c1` [Compound 98, 3-{[4-(4-chloro-3-fluorophenyl)-5-oxo-4,5-dihydro-1H-1,2,4-triazol-3-yl]methyl}-1-{[1-(quinolin-7-yl)-1H-1,2,4-triazol-5-yl]methyl}urea], the AC50 was 71 nM and the maximum response (Emax) is 60%.

`CCN(Cc1ncnn1-c1ccc(Cl)c(F)c1)C(=O)NCc1ncnn1CC1CCOCC1` [Compound 8, 3-{[1-(4-chloro-3-fluorophenyl)-1H-1,2,4-triazol-5-yl]methyl}-3-ethyl-1-({1-[(oxan-4-yl)methyl]-1H-1,2,4-triazol-5-yl}methyl)urea]: the half-maximal activity concentration (AC50) was determined as 320 nM and the maximal response (Emax) was 59%.

`Cc1nc(CNC(=O)NCc2ncnn2-c2ccc3ncccc3c2)n(-c2ccc(Cl)c(F)c2)n1` [Compound 41, 1-{[1-(4-chloro-3-fluorophenyl)-3-methyl-1H-1,2,4-triazol-5-yl]methyl}-3-{[1-(quinolin-6-yl)-1H-1,2,4-triazol-5-yl]methyl}urea] gave an AC50 of 40 nM and an Emax of 81%.

The compound `COCCc1nc(CNC(=O)NCc2ncnn2-c2ccc3cccnc3c2)n(-c2ccc(Cl)c(F)c2)n1` [Compound 97, 1-{[1-(4-chloro-3-fluorophenyl)-3-(2-methoxyethyl)-1H-1,2,4-triazol-5-yl]methyl}-3-{[1-(quinolin-7-yl)-1H-1,2,4-triazol-5-yl]methyl}urea] had a concentration at half-maximal activity (AC50) of 510 nM and a maximal response (Emax) of 92%.

The compound `Cc1nc(CNC(=O)NCc2ncnn2-c2ccn3ccnc3c2)n(-c2ccc(Cl)c(F)c2)n1` [Compound 128, 1-{[1-(4-chloro-3-fluorophenyl)-3-methyl-1H-1,2,4-triazol-5-yl]methyl}-3-[(1-{imidazo[1,2-a]pyridin-7-yl}-1H-1,2,4-triazol-5-yl)methyl]urea] showed an AC50 of 24 nM and an Emax of 59%.

Compound `COc1ccc(-n2ncnc2CNC(=O)NCc2ncnn2-c2ccc(OC)cc2)cc1` [Compound 65, 1,3-bis({[1-(4-methoxyphenyl)-1H-1,2,4-triazol-5-yl]methyl})urea] returned an AC50 of 1800 nM and an Emax of 62%.

In turn, `Cc1nc(CNC(=O)NCc2ncnn2-c2ccc3cc(F)cnc3c2)n(-c2ccc(Cl)c(F)c2)n1` [Compound 48, 1-{[1-(4-chloro-3-fluorophenyl)-3-methyl-1H-1,2,4-triazol-5-yl]methyl}-3-{[1-(3-fluoroquinolin-7-yl)-1H-1,2,4-triazol-5-yl]methyl}urea] showed an AC50 of 83 nM and an Emax of 74%.

Compound `CN(Cc1nnnn1-c1ccc(Cl)c(F)c1)C(=O)NCc1nnnn1-c1ccc(Cl)c(F)c1` [Compound 26, 1,3-bis({[1-(4-chloro-3-fluorophenyl)-1H-1,2,3,4-tetrazol-5-yl]methyl})-1-methylurea] registered a concentration at half-maximal activity (AC50) of 73 nM and a maximum response (Emax) of 93%.

`CCN(Cc1ncnn1-c1ccc(OC)nc1)C(=O)NCc1nc(C)nn1-c1ccc(Cl)c(F)c1` [Compound 124, 3-{[1-(4-chloro-3-fluorophenyl)-3-methyl-1H-1,2,4-triazol-5-yl]methyl}-1-ethyl-1-{[1-(6-methoxypyridin-3-yl)-1H-1,2,4-triazol-5-yl]methyl}urea] gave an AC50 of 270 nM and an Emax of 79%.
